# Results published in patent US8853234B2, “Quinolone analogs and methods related thereto” (Senhwa Biosciences, Inc., priority 2007, dated 2014).
# Tests used:
# rDNA = assay: Quantitative PCR (QPCR) assay, rRNA inhibition (rDNA); type: cell-based; set-up: Selectivity: reference not given here; conditions: for Selectivity: not defined in the patent; for IC50: rRNA inhibition from quantitative PCR assay
# Source text: In a specific assay embodiment, provided herein is a method for identifying a molecule that modulates ribosomal RNA (rRNA) synthesis, which comprises: contacting cells with a test molecule of Formula (I), (II), (III), (IV), (V), (VI), (VI′), (VII), or (VIII), contacting a ribosomal nucleotide sequence with one or more primers that amplify a portion thereof and a labeled probe that hybridizes to the amplification product, and detecting the amount of the amplification product by hybridization of the labeled probe, whereby a test molecule that reduces or increases the amount of amplification product is identified as a molecule that modulates rRNA synthesis. The labeled probe in some embodiments is added after the primers are added and the rRNA is amplified, and in certain embodiments, the labeled probe and the primers are added at the same time. The portion of ribosomal nucleotide sequence amplified sometimes is at the 5′ end of rDNA.
# Real-time quantitative PCR (QPCR) method may be used to detect the changes of the target c-myc and the endogenous reference GAPDH gene copies in the same tube. Generally, cells (15,000 cells/well) are seeded on 96 well flat bottom plates (Corning, N.Y.) and incubated under normal growth conditions for overnight. The next day, the culture medium is exchanged for that containing anticancer drugs at various concentrations and incubated for 4 hrs in a humidified atmosphere of 5% CO2 at 37° C. Total RNA (tRNA) is extracted using the RNeasy 96 Kit (QIAGEN, CA). The concentration of the tRNA is determined by the RiboGreen RNA Quantitation Reagent (Molecular Probes, OR).
# A reverse-transcription (RT) reaction may be conducted using 50 ng of tRNA from each well in a 25 μl reaction containing 1× TaqMan RT buffer, 2.5 uM random hexamers, 5.5 mM MgCl2, 0.5 mM each deoxynucleoside triphosphate (dNTP), 30 U MultiScribe Reverse Transcriptase, and 10 U RNase inhibitor. RT reactions are incubated for 10 min at 25° C., reverse-transcribed for 30 min at 48° C., inactivated for 5 min at 95° C., and placed at 4° C. All RT reagents may be purchased from Applied Biosystems, CA.
# Real-Time QPCR reaction may be performed in a 50 μl reaction containing the 5 μl of cDNA, 1× Universal PCR Master Mix, 1× c-myc Pre-Developed Primers and Probe set, and 0.8×GAPDH Pre-Developed Primers and Probe set. Because of the relative abundance of GAPDH gene in Hela, GAPDH primers and probe concentration may be adjusted to get accurate threshold cycles (CT) for both genes in the same tube. The threshold cycle (CT) indicates the fractional cycle number at which the amount of amplified target reaches a fixed threshold. By doing so, the GAPDH amplification is stopped before it can limit the common reactants available for amplification of the c-myc. The ΔRn value represents the normalized reporter signal minus the baseline signal. ΔRn increases during PCR as amplicon copy number increases until the reaction approaches a plateau.
# The c-myc probe is labeled with 6FAM™ dye-MGB and the GAPDH probe is labeled with VIC™ dye-MTB. Preincubation is performed for 2 min at 50° C. to activate AmpErase UNG enzyme and then for 10 min at 95° C. to activate AmpliTaq DNA Polymerase. DNA is amplified for 40 cycles of 15 sec at 95° C. and 1 min at 60° C. Human c-myc and GAPDH cDNA are amplified, detected, and quantitated in real time using the ABI Prism 7000 Sequence Detection system (Applied Biosystems, CA), which is set to detect both 6-FAM and VIC reporter dyes simultaneously.
# The data may be analyzed using the ABI PRISM Sequence Detection System and Microsoft Excel. Relative quantitation is done using the standard curve and comparative CT method at the same time, and both methods gave equivalent results. The cycle at which the amplification plot crosses the CT is known to accurately reflect relative mRNA values. (See, Heid, et al., Genome Res. (1996) 6:986-994; Gibson, et al., Genome Res. (1996) 6:995-1001). […]
# [1] = test system: HCT-116 human colorectal carcinoma cells; assay: Alamar Blue (AB) cell proliferation assay, HCT-116; type: cell-based; conditions: 96 h, Alamar Blue cell proliferation inhibition, HCT-116, four days
# Method: A representative cell-proliferation assay protocol using Alamar Blue dye (stored at 4° C., use 20 ul per well) is described hereafter.
# 96-Well Plate Setup and Compound Treatment
# a. Split and trypsinize cells.
# b. Count cells using hemocytometer.
# c. Plate 4,000-5,000 cells per well in 100 μl of medium and seed into a 96-well plate according to the following plate layout. Add cell culture medium only to wells B10 to B12. Wells B1 to B9 have cells but no compound added.
# d. Add 100 μl of 2× drug dilution to each well in a concentration shown in the plate layout above. At the same time, add 100 μl of media into the control wells (wells B10 to B12). Total volume is 200 μl/well.
# e. Incubate four (4) days at 37° C., 5% CO2 in a humidified incubator.
# f. Add 20 μl Alamar Blue reagent to each well.
# g. Incubate for four (4) hours at 37° C., 5% CO2 in a humidified incubator.
# h. Record fluorescence at an excitation wavelength of 544 nm and emission wavelength of 590 nm using a microplate reader.
# In the assays, cells are cultured with a test compound for approximately four days, the dye then is added to the cells and fluorescence of […] dye is detected after approximately four hours. Different types of cells can be utilized in the assays (e.g., HCT-116 human colorectal carcinoma cells, PC-3 human prostatic cancer cells and MiaPaca human pancreatic carcinoma cells). Anti-proliferative effects of representative compounds are provided hereafter.
# Representative cassette dosing and bioavailability data are given in Table 8, along with cell proliferation inhibition (from Alamar Blue (AB) assay (e.g., Example 45 herein) and rRNA inhibition (from quantitative PCR (QPCR) assay (e.g., Example 46 herein).
SMILES,Selectivity (rDNA),IC50 (rDNA) [nM],IC50 [1] [nM]
Cn1c2ccccc2n2c3nc(N4CCOCC4)c(F)cc3c(=O)c(C(=O)NCCN3CCCC3)c12,7,318,307
O=C(NCCN1CCCC1)c1c(=O)c2ccc(N3CCOCC3)nc2n2c1sc1ccccc12,162,52,59
CN1CCCC1CCNC(=O)c1c(=O)c2ccc(N3CCOCC3)nc2n2c1sc1ccccc12 (stereo not drawn),42,249,55
Cn1c2ccccc2n2c3nc(N4CCOCC4)ccc3c(=O)c(C(=O)NCCN3CCCC3)c12,3,261,75
CN1CCCC1CCNC(=O)c1cn2c3c(c(N4CCOCC4)c(F)cc3c1=O)Oc1ccccc1-2 (stereo not drawn),12,405,389
CN1CCCC1CCNC(=O)c1c(=O)c2cc(F)c(N3CCOCC3)nc2n2c1sc1ccccc12 (stereo not drawn),10,892,337
O=C(NCCN1CCCC1)c1c(=O)c2cc(F)c(N3CCOCC3)nc2n2c1sc1ccccc12,70,127,81
CN1CCN(C(=O)c2c(=O)c3cc(F)c(N4CCOCC4)nc3n3c2sc2ccccc23)CC1,7,1150,386
O=C(NCCN1CCC(O)C1)c1c(=O)c2cc(F)c(N3CCOCC3)nc2n2c1sc1ccccc12 (stereo not drawn),10,10,55
CN1CCC(N(C)C(=O)c2c(=O)c3cc(F)c(N4CCOCC4)nc3n3c2sc2ccccc23)C1 (stereo not drawn),5,381,174
O=C(NCCNCC1CCCO1)c1c(=O)c2ccc(N3CCOCC3)nc2n2c1sc1ccccc12 (stereo not drawn),119,40,116
O=C(NCCN1CC=CC1)c1c(=O)c2ccc(N3CCOCC3)nc2n2c1sc1ccccc12,22,64,130
Cn1cncc1CNC(=O)c1c(=O)c2ccc(N3CCOCC3)nc2n2c1sc1ccccc12,60,262,174
O=C(c1c(=O)c2ccc(N3CCOCC3)nc2n2c1sc1ccccc12)N1CCN(c2ncccn2)CC1,13,578,461
O=C(c1c(=O)c2ccc(N3CCOCC3)nc2n2c1sc1ccccc12)N1CCN(c2ccccn2)CC1,17,723,210
O=C(NCCN1CC=CC1)c1cn2c3c(c(N4CCC(c5cnccn5)C4)c(F)cc3c1=O)Oc1cc3ccccc3cc1-2 (stereo not drawn),24,1040,398
O=C(NCCN1CC=CCC1)c1c(=O)c2ccc(N3CCOCC3)nc2n2c1sc1ccccc12,64,32,98
O=C(NCCN1CC=CC1)c1c(=O)c2cc(F)c(N3CCOCC3)nc2n2c1sc1ccccc12,3,42,392
O=C(NCCNCCF)c1c(=O)c2ccc(N3CCOCC3)nc2n2c1sc1ccccc12,48,59,135

SMILES,Selectivity (rDNA),IC50 (rDNA) [nM],IC50 [1] [nM]
O=C(NCCNCC(F)(F)F)c1c(=O)c2ccc(N3CCOCC3)nc2n2c1sc1ccccc12,15,502,535
O=C(NCCNCCF)c1c(=O)c2cc(F)c(N3CCOCC3)nc2n2c1sc1ccccc12,70,147,484
O=C(NCCn1ccnc1)c1c(=O)c2ccc(N3CCOCC3)nc2n2c1sc1ccccc12,24,431,473
Cn1ccnc1CNC(=O)c1c(=O)c2ccc(N3CCOCC3)nc2n2c1sc1ccccc12,9,173,145
O=C(NCCN1CCOCC1)c1c(=O)c2ccc(N3CCOCC3)nc2n2c1sc1ccccc12,16,496,454
Cn1ccnc1CNC(=O)c1c(=O)c2cc(F)c(N3CCOCC3)nc2n2c1sc1ccccc12,11,134,199
Cc1nccn1CCNC(=O)c1c(=O)c2ccc(N3CCOCC3)nc2n2c1sc1ccccc12,21,84,166
O=C(NNC1=NCCN1)c1c(=O)c2cc(F)c(N3CCOCC3)nc2n2c1sc1ccccc12,893,28,1
Cn1c2ccccc2n2c3nc(N4CCOCC4)c(F)cc3c(=O)c(C(=O)N3CCN4CCCC4C3)c12 (stereo not drawn),10,841,843
CN1CCN(c2ccc3c(=O)c(C(=O)NCc4ccccn4)c4sc5ccccc5n4c3n2)CC1,111,112,147
O=C(NCCNC1CC1)c1c(=O)c2cc(F)c(N3CCOCC3)nc2n2c1sc1ccccc12,53,248,132
CN1CCCCC1CNC(=O)c1c(=O)c2ccc(N3CCOCC3)nc2n2c1sc1ccccc12 (stereo not drawn),2778,9,6
CN1CCCN(C(=O)c2c(=O)c3cc(F)c(N4CCOCC4)nc3n3c2sc2ccccc23)CC1,10,233,300
Cn1ccnc1CNC(=O)c1c(=O)c2cc(N3CCOCC3)nnc2n2c1sc1ccccc12,53,334,174
CN1CCCC(NC(=O)c2c(=O)c3cc(F)c(N4CCOCC4)nc3n3c2sc2ccccc23)C1 (stereo not drawn),862,29,27
O=C(NCC1CCCN1)c1c(=O)c2cc(F)c(N3CCOCC3)nc2n2c1sc1ccccc12 (stereo not drawn),25,16,9
CN1CCCCC1CNc1ccc2c(=O)c(C(=O)NCc3ccncc3)c3sc4ccccc4n3c2n1 (stereo not drawn),39,67,8
CN1CCCC1CNC(=O)c1c(=O)c2cc(F)c(N3CCOCC3)nc2n2c1sc1ccccc12 (stereo not drawn),45,383,128
CN1CCN(c2nc3c(cc2F)c(=O)c(C(=O)NCc2cn(C)cn2)c2sc4ccccc4n23)CC1,69,139,303
